Test results taken from ChEMBL document CHEMBL1132073, “Synthesis of novel 4'-C-methyl-pyrimidine nucleosides and their biological activities” (Bioorg Med Chem Lett, 1999).
In brackets after ≈: the same amount, converted by molar mass.

Experiments:
[1] = system: Human alphaherpesvirus 3; test: Compound was evaluated for the antiviral activity against Varicella-Zoster virus (VZV) Oka strain by using plaque reduction assay.; type: functional; settings: read-out: ED50 (the source's name)
[2] = system: Human alphaherpesvirus 2; test: Compound was evaluated for the antiviral activity against Herpes simplex virus type 2 (HSV-2) MS strain by using plaque reduction assay.; type: functional; settings: read-out: ED50 (the source's name)
[3] = system: Human alphaherpesvirus 1; test: Compound was evaluated for the antiviral activity against Herpes simplex virus type 1 (HSV-1) VR-3 strain by using plaque reduction assay.; type: functional; settings: read-out: ED50 (the source's name)
[4] = system: CCRF-HSB-2; test: Compound was evaluated for the cytotoxicity against human T-cell leukemia, CCRF-HSB-2 by using MTT assay.; type: functional, cell-based

| EC50 [1] | EC50 [2] | EC50 [3] | SMILES | IC50 [4] |
| --- | --- | --- | --- | --- |
| 0.094 µg/mL (≈ 0.39 µM) | 0.27 µg/mL (≈ 1.12 µM) | 0.071 µg/mL (≈ 0.294 µM) | C[C@@]1(CO)O[C@H](n2ccc(N)nc2=O)C[C@H]1O | 0.12 µg/mL (≈ 0.497 µM) |
| 0.00083 µg/mL (≈ 0.00238 µM) | 62 µg/mL (≈ 178 µM) | 0.048 µg/mL (≈ 0.137 µM) | O=c1[nH]c(=O)n([C@@H]2O[C@H](CO)[C@@H](O)[C@H]2O)cc1/C=C/Br | > 100 µg/mL |
| 0.00077 µg/mL (≈ 0.00222 µM) | 0.26 µg/mL (≈ 0.749 µM) | 0.0053 µg/mL (≈ 0.0153 µM) | C[C@]1(CO)O[C@@H](n2cc(/C=C/Br)c(=O)[nH]c2=O)CC1O (single isomer, unassigned) | 0.45 µg/mL (≈ 1.3 µM) |
| 0.18 µg/mL (≈ 0.496 µM) | 63.5 µg/mL (≈ 175 µM) | 24.4 µg/mL (≈ 67.2 µM) | C[C@]1(CO)OC(n2cc(/C=C/Br)c(=O)[nH]c2=O)[C@H](O)[C@@H]1O (stereo not given in full) | > 100 µg/mL |

| SMILES | EC50 [1] | EC50 [2] | EC50 [3] | IC50 [4] |
| --- | --- | --- | --- | --- |
| O=c1[nH]c(=O)n([C@H]2C[C@H](O)[C@@H](CO)O2)cc1/C=C/Br [BRIVUDINE] | 0.013 µg/mL (≈ 0.039 µM) | > 100 µg/mL | 0.052 µg/mL (≈ 0.156 µM) | > 100 µg/mL |
